The test system of assay [1] is Microsporum canis (IFM63627). Put plainly: Antifungal activity test, minimum inhibitory concentration (MIC100). In kind it is cell-based. The following applies: Sabouraud medium, 32° C. for 72 hours. The method, then:
Microsporum canis was cultured on a 1/10 Sabouraud medium at 32° C. for 168 hours to form spores. Then, 10 mL of physiological saline solution (OTSUKA NORMAL SALINE; containing the equivalent of 9 g of sodium chloride in 1000 mL) was directly added over the medium, and the surface was scraped with a disposable loop (Type 1 (1 μL) to collect a spore suspension containing mycelia. The spore suspension containing mycelia was filtered through a cell strainer (+40 μm). Spores were collected from a filtrate by centrifugation (3500 rpm, 5 minutes), and washed twice with physiological saline to prepare a spore suspension (1×10^7 cells/mL). 10 μL of the spore suspension was inoculated into a Sabouraud medium to which the compound under test dissolved in DMSO was added so as to have a predetermined concentration. Microsporum canis was cultured at 32° C. for 72 hours, and then the presence or absence of the development of colonies was examined to determine a minimum inhibitory concentration (MIC100).
A minimum inhibitory concentration (MIC100) for Microsporum canis (IFM63627) was determined in the same method as in Test Example 7 except that the hydrate crystal (Production Example 2) was used as the compound under test.

For assay [2], the system named is Staphylococcus pseudintermedius (JCM 17571). Put plainly: Antimicrobial activity test, minimum bactericidal concentration (MBC100). It counts as cell-based. The following applies: JCM17571, S. pseudintermedius, 1 minute contact, then culture at 30° C. for 72 hours. The method, then: Staphylococcus pseudintermedius that had been cultured on a Luria Broth (LB) agar medium plate (peptone, yeast extract, sodium chloride, agar, from Invitrogen) for 24 hours was suspended in physiological saline to prepare so as to have an absorbance of 0.025 at 600 nm. The compound under test dissolved in DMSO was added thereto so as to have final concentrations of 200, 100, 50, and 25 ppm, and 1 minute later, 10 μL of suspension and 10 mL of physiological saline were added to a syringe and stirred. After that, the mixture was filtered by connecting to a 37 mm quality monitor (manufactured by Pall Corporation) and washed twice with 10 ml of physiological saline. As such, membrane filters were permeated with an LB medium, culturing was performed at 30° C. for 72 hours, the presence or absence of the development of colonies was examined to determine a minimum bactericidal concentration (MBC100). A minimum bactericidal concentration (MBC100) for Staphylococcus pseudintermedius (JCM 17571) was determined in the same method as in Test Example 6 except that the hydrate crystal (Production Example 2) was used as the compound under test.

Converted amounts (≈) assume the structure as drawn.

MIC and MBC data for one compound are collected here from patent US20250026725A1, “HYDRATE CRYSTAL OF 5-CHLORO-4-(3-CHLORO-4- METHYLPHENYL)-1H-IMIDAZOLE-2-CARBONITRILE” (ISHIHARA SANGYO KAISHA, LTD., priority 2021, published 2025).

`Cc1ccc(-c2nc(C#N)[nH]c2Cl)cc1Cl` [Anhydrous crystal, 5-chloro-4-(3-chloro-4-methylphenyl)-1H-imidazole-2-carbonitrile] had an MIC in assay [1] of 5 µg/mL (≈ 19.8 µM). Also, the minimum bactericidal concentration (MBC) in assay [2] came out at 50 µg/mL (≈ 198 µM).

In general, MIC refers to the lowest concentration found to suppress growth. High values mean a need for much substance, low ones inhibition by little substance. Broadly, the MBC is the smallest concentration meeting the test's criterion for killing. The low end stands for more potent killing, the high end for less potent killing.
